Measured values reported in patent US20110123530A1, “COMPOSITIONS AND METHODS FOR TREATING AND DIAGNOSING ASTHMA” (priority 2008, published 2011).

Experiments:
[1] = system: serum IgE; test: Serum IgE (clinical laboratory or ELISA); type: in vivo, human; details: asthmatics on inhaled corticosteroids (N = 51) vs No ICS (N = 49)
Description: (§1) Serum IgE was measured by UCSF clinical laboratories or by ELISA using a human serum IgE ELISA kit according to manufacturer's instructions (Bethyl Laboratories). Serum CEA was measured using a human serum CEA ELISA kit according to manufacturer's instructions (Alpco Diagnostics). We developed an electrochemiluminescent assay (ECLA) to measure serum periostin using anti-periostin antibodies (R&D systems). Briefly, monoclonal anti-periostin was coated onto plates at 1.5 micrograms/ml in sodium carbonate buffer, pH 9.6 overnight at 4° C. Plates were blocked in assay buffer (1×PBS pH 7.4, 0.35 M NaCl, 0.5% BSA, 0.05% Tween 20, 0.25% CHAPS, 5 mM EDTA, 15PPM Proclin)+3% BSA for 2 hours at room temperature, then washed 4× with TBST (Tris-buffered saline+0.1% Tween-20). Serum was diluted 1:5 in assay buffer and incubated with agitation at room temperature for 2 h, then washed 4× with TBST. Recombinant periostin (R&D Systems) was used to establish a standard range. […] Reading buffer (Meso Scale Devices) was added and electrochemiluminescence was read (Meso Scale Devices). […] In addition, we measured IgE and YKL-40, a serum marker previously described to be elevated in some asthmatics, in these same sera. […]

[2] = system: serum CEA; test: Serum CEA ELISA; type: in vivo, human; details: asthmatics on inhaled corticosteroids (N = 51) vs No ICS (N = 49)
Description: as §1

CCC(=O)O[C@]1(C(=O)SCF)[C@H](C)C[C@H]2[C@@H]3C[C@H](F)C4=CC(=O)C=C[C@]4(C)[C@@]3(F)[C@@H](O)C[C@@]21C [fluticasone, fluticasone propionate]
IgE, level of serum biomarker, median (range) [1]: 132 (1-2098) IU/ml | CEA, level of serum biomarker, median (range) [2]: 1.9 (<0.2-21*) ng/ml
